Series [1] deals with T1, Solute carrier family 22 member 1 (Mus musculus, UniProt O08966).
T1 sequence (O08966 whole entry): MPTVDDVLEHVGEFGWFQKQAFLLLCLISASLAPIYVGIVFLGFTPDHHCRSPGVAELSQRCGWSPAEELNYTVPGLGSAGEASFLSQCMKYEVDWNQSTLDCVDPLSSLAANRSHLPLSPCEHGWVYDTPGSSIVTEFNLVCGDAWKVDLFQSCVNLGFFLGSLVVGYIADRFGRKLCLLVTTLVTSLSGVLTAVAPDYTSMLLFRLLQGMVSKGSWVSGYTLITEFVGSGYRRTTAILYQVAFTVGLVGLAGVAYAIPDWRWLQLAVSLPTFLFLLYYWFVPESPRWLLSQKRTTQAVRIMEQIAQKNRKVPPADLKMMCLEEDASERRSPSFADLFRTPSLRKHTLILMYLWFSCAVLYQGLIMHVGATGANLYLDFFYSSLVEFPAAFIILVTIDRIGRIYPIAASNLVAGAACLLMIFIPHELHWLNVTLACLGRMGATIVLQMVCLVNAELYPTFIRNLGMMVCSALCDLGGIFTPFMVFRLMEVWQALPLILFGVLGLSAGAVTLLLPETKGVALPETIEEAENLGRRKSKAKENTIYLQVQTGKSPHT
Nature of the series: (§1) TP_TRANSPORTER: inhibition of MPP+ uptake (MPP+: 1 uM) in Xenopus laevis oocytes. It is filed as functional, cell-based, Oocyte.

The target in series [2] is T2, Solute carrier family 22 member 2 (Mus musculus, UniProt O70577).
T2 sequence (O70577 whole entry): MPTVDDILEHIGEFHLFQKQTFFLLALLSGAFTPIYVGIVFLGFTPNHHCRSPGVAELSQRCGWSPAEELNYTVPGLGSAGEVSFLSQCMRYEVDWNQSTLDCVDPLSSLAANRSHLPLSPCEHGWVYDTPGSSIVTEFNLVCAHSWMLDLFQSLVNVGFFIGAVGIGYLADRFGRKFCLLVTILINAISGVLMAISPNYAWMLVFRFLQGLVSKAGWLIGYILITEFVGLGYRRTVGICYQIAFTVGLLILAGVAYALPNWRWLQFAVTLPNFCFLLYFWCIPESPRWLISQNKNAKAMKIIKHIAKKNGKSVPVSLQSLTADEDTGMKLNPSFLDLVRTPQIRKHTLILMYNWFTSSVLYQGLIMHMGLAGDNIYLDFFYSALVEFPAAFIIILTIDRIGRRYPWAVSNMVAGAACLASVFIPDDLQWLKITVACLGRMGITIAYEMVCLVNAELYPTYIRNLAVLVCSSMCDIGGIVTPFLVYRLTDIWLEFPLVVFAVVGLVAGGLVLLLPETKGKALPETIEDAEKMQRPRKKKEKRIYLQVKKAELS
The series is described as §1. The format is functional, cell-based, Oocyte.

Substrate in series [3]: C[n+]1ccc(-c2ccccc2)cc1
The experiment in a line: TP_TRANSPORTER: uptake in Xenopus laevis oocytes. It is filed as functional, cell-based, Oocyte.

Substrate in series [4]: CC[N+](CC)(CC)CC
Nature of the series: cells, lysate or membranes named.

As usually defined, the IC50 is the concentration that inhibits the measured activity by half. Read a low IC50 as higher potency. Consider `CC[N+](CC)(CC)CC` [TETRYLAMMONIUM], for which the half-inhibitory concentration (IC50) amounted to 0.54 µM in series [1] and 3.5 µM in series [2]. On to `C[N+](C)(C)CCO` [CHOLINE], for which the values for the 50% inhibitory concentration (IC50) in series [1] and in series [2] were 55 µM and 217 µM, respectively. `CN/C(=N/CCSCc1nc[nH]c1C)NC#N` [CIMETIDINE]: the IC50 is 0.59 µM in series [1] and 8 µM in series [2]. In the same order, the values of `CCN(CC)CCNC(=O)c1ccc(N)cc1` [PROCAINAMIDE] are 3.9 µM and 312 µM. In series [2], `C=C[C@H]1C[N@@]2CC[C@H]1C[C@H]2[C@H](O)c1ccnc2ccc(OC)cc12` [QUININE] yielded an IC50 of 2.8 µM. With `CNC(=O)c1cccnc1` [NICOTINYL METHYLAMIDE], the 50% inhibitory concentration (IC50) in series [1] is 7340 µM; in series [2], 13700 µM.

B1: Solute carrier family 22 member 1 (Mus musculus) (protein)
chain: MPTVDDVLEHVGEFGWFQKQAFLLLCLISASLAPIYVGIVFLGFTPDHHCRSPGVAELSQRCGWSPAEELNYTVPGLGSAGEASFLSQCMKYEVDWNQSTLDCVDPLSSLAANRSHLPLSPCEHGWVYDTPGSSIVTEFNLVCGDAWKVDLFQSCVNLGFFLGSLVVGYIADRFGRKLCLLVTTLVTSLSGVLTAVAPDYTSMLLFRLLQGMVSKGSWVSGYTLITEFVGSGYRRTTAILYQVAFTVGLVGLAGVAYAIPDWRWLQLAVSLPTFLFLLYYWFVPESPRWLLSQKRTTQAVRIMEQIAQKNRKVPPADLKMMCLEEDASERRSPSFADLFRTPSLRKHTLILMYLWFSCAVLYQGLIMHVGATGANLYLDFFYSSLVEFPAAFIILVTIDRIGRIYPIAASNLVAGAACLLMIFIPHELHWLNVTLACLGRMGATIVLQMVCLVNAELYPTFIRNLGMMVCSALCDLGGIFTPFMVFRLMEVWQALPLILFGVLGLSAGAVTLLLPETKGVALPETIEEAENLGRRKSKAKENTIYLQVQTGKSPHT
By Km is commonly meant the concentration of substrate that gives half-maximal velocity. As to B1, in series [3], the Km was found to be 10 µM.

B2: Solute carrier family 22 member 2 (Mus musculus) (protein)
chain: MPTVDDILEHIGEFHLFQKQTFFLLALLSGAFTPIYVGIVFLGFTPNHHCRSPGVAELSQRCGWSPAEELNYTVPGLGSAGEVSFLSQCMRYEVDWNQSTLDCVDPLSSLAANRSHLPLSPCEHGWVYDTPGSSIVTEFNLVCAHSWMLDLFQSLVNVGFFIGAVGIGYLADRFGRKFCLLVTILINAISGVLMAISPNYAWMLVFRFLQGLVSKAGWLIGYILITEFVGLGYRRTVGICYQIAFTVGLLILAGVAYALPNWRWLQFAVTLPNFCFLLYFWCIPESPRWLISQNKNAKAMKIIKHIAKKNGKSVPVSLQSLTADEDTGMKLNPSFLDLVRTPQIRKHTLILMYNWFTSSVLYQGLIMHMGLAGDNIYLDFFYSALVEFPAAFIIILTIDRIGRRYPWAVSNMVAGAACLASVFIPDDLQWLKITVACLGRMGITIAYEMVCLVNAELYPTYIRNLAVLVCSSMCDIGGIVTPFLVYRLTDIWLEFPLVVFAVVGLVAGGLVLLLPETKGKALPETIEDAEKMQRPRKKKEKRIYLQVKKAELS
In the case of B2, the Km in series [3] was 24 µM; in series [4], 35.7 µM.

For the origin of these results see ChEMBL document CHEMBL2074047, “Functional characterization of mouse cation transporter mOCT2 compared with mOCT1” (Biochem Biophys Res Commun, 2002).
